The source of these data is publication PMC5581131, “The novel sphingosine-1-phosphate receptors antagonist AD2900 affects lymphocyte activation and inhibits T-cell entry into the lymph nodes” (Oncotarget, 2017).

Data set [1] deals with T1, S1P4 (Homo sapiens, UniProt O95977).
T1 construct: Tango fusion partner (protease site + GAL4-VP16 transcription factor); expressed in transfected cells; host or cells: Tango S1P4 (EDG6)-bla U-2 OS cells
T1 sequence (O95977 1-384): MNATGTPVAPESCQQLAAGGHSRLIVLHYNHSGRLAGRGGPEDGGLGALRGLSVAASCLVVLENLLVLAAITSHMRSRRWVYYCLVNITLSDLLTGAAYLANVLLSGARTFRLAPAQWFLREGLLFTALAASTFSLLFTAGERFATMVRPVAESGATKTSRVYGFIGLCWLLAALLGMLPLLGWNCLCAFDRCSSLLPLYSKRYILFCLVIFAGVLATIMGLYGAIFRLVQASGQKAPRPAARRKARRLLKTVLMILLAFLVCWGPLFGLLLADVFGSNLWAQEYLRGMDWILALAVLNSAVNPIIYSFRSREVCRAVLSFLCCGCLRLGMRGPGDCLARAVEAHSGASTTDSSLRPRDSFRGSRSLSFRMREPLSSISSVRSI
The data set can be described thus: S1P4 antagonist test, Tango S1P4 (EDG6)-bla U-2 OS cells. The format is cell-based. The following applies: S1P4 TANGO U-2 OS cell line. The protocol: (§1) Since AD2900 is a sphingolipid analogue with properties that resemble those of S1P, we intended to examine its ability to interact with the S1P receptors. To delineate whether AD2900 can function as an agonistic or antagonistic compound to any of the S1P receptors, we used a high-throughput screening cell-based assay, employing cell lines stably transfected with human S1P receptors 1, 2, 3, 4, or 5 [37]. In this experiment, a compound with an IC50 or EC50 value ≤10 μM for a certain S1P receptor is considered active as an antagonist or an agonist, respectively. The results illustrate that AD2900 acts as an antagonist to all S1P receptors (Table 1, Supplementary Figure 3). […] No agonist activation was evident.
(§2) The S1P1 agonist test and S1P2, S1P3, S1P4, and S1P5 agonist and antagonist tests were conducted as previously described using S1P1 CRE-bla CHO cells, S1P2 CRE-bla CHO cells, S1P3 NFAT-bla CHO cells, Tango™ S1P4 (EDG6)-bla U-2 OS cells, and Tango™ S1P5 ([…])-bla U-2 OS cells. The S1P1 antagonist assay was carried out according to the manufacturer’s instructions using a Tango™ S1P1 (EDG1)-bla U-2 OS Cell-Based Assay (Invitrogen, NY, USA).

Details of data set [2]: method as in unpublished data. The note with it: previous studies; ref unpublished data; cited from earlier work.
On the set-up of data set [3]: method as in unpublished data. The following applies: previous studies; ref unpublished data; cited from earlier work. The source holds these as a separate data set.
Data set [4] relates to murine splenocytes. Description: Mouse allogeneic MLR with murine splenocytes. The format is cell-based. The note with it: 1-day pretreatment, 3-day mice MLR; mean of up to, highest concentration. The protocol:
Supplementary Figure 4: AD2900 inhibits mice splenocytes proliferation in allogeneic activation in vitro. In vivo- the […]
(A) The levels of proliferative response of mouse splenocytes after one day pretreatment with different concentrations of AD2900 were tested by mouse allogeneic mixed lymphocyte reaction (MLR) assay followed by a [3H] thymidine incorporation analysis. [3H] thymidine was incorporated for at least 16 hours at the 3rd day of the experiment. Significance is compared to untreated mice splenocytes. (B) C57BL/6 mice were orally administered AD2900 or FTY720. Leucocytes from blood, spleen and pLNs were collected and stained with TCR-β, CD62L and CD44 florescent antibodies and then analyzed by FACS analysis. The percent of CD62L+CD44+ (Tcm) like cells out of the total T cell population (TCR-β+) in blood, spleen and pLNs are shown. All the significances are compared to untreated healthy mice. Graphs summarize results of at least three independent experiments. Results of Student’s t test :*( P < 0.05, two-tailed test), ** (P < 0.01, two-tailed test), *** (P < 0.001, two-tailed test), **** (P < 0.0001, two-tailed test).
(also on this page, place not known: www.impactjournals.com/oncotarget/ Oncotarget, Materials 2017 Supplementary) […]

The target of data set [5] is T2, S1P5 (Homo sapiens, UniProt Q9H228).
T2 construct: Tango fusion partner (protease site + GAL4-VP16 transcription factor); expressed in transfected cells; host or cells: Tango S1P5-bla U-2 OS cells
T2 sequence (Q9H228 whole entry, the tested form may be a part): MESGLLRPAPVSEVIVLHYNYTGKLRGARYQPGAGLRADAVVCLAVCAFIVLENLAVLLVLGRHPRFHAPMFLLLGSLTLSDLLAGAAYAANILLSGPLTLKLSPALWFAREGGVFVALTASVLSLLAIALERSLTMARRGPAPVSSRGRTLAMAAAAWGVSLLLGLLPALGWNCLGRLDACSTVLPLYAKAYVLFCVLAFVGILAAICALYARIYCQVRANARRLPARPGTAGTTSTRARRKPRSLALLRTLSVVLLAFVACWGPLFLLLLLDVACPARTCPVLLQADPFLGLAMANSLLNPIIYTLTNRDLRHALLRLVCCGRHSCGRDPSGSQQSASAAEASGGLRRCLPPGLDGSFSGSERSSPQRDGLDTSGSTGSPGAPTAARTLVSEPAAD
Description: S1P5 antagonist test, Tango S1P5-bla U-2 OS cells. The format is cell-based. The following applies: S1P5 TANGO U-2 OS cell line. The protocol:
as §1, §2

As usually defined, the IC50 is the concentration that inhibits the measured activity by half. A low value points to higher potency. For `CCCCCCCCCCCCCCCCNC(CO)(CO)CO` [AD2900], the IC50 in data set [1] stood at 5.9 µM; in data set [5], 0.405 µM. The “stable at room temperature” value in data set [2] is given as “at least 2 years”. In addition, in data set [3], the “lethal dose 50% (LD50)” value is listed as “above 100 mg/kg”. In data set [4], the “inhibition of mice T-cell proliferation” value is on record as 73% ± 3%.
